Results on 22 compounds are retold here after ChEMBL document CHEMBL1909046, “DrugMatrix in vitro pharmacology data”.

In assay [1] the target is T1, Alpha-1A adrenergic receptor (Rattus norvegicus, UniProt P43140).
T1 sequence (P43140 whole entry): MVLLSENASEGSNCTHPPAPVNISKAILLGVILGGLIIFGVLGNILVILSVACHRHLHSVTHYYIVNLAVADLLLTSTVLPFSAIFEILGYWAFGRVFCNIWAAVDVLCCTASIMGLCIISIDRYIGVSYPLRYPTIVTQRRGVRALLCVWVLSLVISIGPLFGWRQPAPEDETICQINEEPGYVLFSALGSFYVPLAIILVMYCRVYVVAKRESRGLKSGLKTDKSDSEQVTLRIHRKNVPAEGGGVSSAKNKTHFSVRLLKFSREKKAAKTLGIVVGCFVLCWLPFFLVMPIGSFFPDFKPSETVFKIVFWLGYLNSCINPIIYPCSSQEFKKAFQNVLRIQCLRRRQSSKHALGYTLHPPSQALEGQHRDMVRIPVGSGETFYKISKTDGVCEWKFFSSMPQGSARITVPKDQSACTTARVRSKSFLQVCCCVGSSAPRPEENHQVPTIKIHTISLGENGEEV
In words: DRUGMATRIX: Alpha-1A adrenergic receptor radioligand binding (ligand: prazosin). The format is cell membranes, Wistar, Submaxillary gland, Membrane. Particulars: Not Active = under 50% inhibition at 10 µM.

In the next assay the target is Cannabinoid receptor 1 (Homo sapiens, UniProt P21554). The format is cell membranes, Chem-1, Membrane. The conditions noted are these: chem-1. Note: in other assays of this panel Not Active means under 50% inhibition at 10 µM.
The nature of assay [2]: DRUGMATRIX: GABAA, Flunitrazepam, Central radioligand binding (ligand: [3H] Flunitrazepam). The format is cell membranes, Rattus norvegicus, Wistar, Brain, Membrane. The conditions noted are these: Not Active = under 50% inhibition at 10 µM.
Assay [3] deals with C-C chemokine receptor type 5 (Homo sapiens, UniProt P51681). The format is cell membranes, Membrane. Particulars: hek293.
The target in assay [4] is Sodium-dependent noradrenaline transporter (Homo sapiens, UniProt P23975). In words: DRUGMATRIX: Norepinephrine Transporter radioligand binding (ligand: [125I] RTI-55). The format is cell membranes, MDCK, Membrane. Particulars: Not Active = under 50% inhibition at 10 µM.
The target of assay [5] is T2, C-X-C chemokine receptor type 1 (Homo sapiens, UniProt P25024). Note: in other assays of this panel Not Active means under 50% inhibition at 10 µM.
T2 sequence (P25024 whole entry): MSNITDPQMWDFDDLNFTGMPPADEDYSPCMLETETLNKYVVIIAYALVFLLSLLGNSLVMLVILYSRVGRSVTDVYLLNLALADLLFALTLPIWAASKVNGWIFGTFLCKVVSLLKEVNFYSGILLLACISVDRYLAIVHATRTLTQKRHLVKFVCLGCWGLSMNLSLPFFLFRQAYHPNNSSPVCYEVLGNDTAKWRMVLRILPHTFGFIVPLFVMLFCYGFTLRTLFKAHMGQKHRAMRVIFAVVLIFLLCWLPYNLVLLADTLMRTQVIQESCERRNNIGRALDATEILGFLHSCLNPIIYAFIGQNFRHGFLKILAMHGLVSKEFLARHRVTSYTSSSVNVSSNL

Sequence of Sodium-dependent noradrenaline transporter (P23975 whole entry): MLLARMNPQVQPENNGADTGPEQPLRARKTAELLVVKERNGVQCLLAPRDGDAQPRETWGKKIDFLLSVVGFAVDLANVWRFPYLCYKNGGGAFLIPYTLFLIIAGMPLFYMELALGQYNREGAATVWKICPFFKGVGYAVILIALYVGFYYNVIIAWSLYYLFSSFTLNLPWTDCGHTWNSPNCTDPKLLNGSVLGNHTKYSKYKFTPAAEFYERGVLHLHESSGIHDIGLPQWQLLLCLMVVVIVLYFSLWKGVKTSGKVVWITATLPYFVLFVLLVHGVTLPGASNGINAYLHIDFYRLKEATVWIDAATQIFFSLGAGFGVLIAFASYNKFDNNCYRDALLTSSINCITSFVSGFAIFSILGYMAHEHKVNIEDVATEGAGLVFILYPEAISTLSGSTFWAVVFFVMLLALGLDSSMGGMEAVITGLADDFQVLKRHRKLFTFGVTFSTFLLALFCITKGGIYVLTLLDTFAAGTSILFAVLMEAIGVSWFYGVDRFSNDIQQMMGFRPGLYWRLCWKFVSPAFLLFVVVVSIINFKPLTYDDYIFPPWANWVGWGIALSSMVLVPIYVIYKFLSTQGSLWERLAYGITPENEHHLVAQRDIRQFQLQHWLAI
Sequence of C-C chemokine receptor type 5 (P51681 whole entry): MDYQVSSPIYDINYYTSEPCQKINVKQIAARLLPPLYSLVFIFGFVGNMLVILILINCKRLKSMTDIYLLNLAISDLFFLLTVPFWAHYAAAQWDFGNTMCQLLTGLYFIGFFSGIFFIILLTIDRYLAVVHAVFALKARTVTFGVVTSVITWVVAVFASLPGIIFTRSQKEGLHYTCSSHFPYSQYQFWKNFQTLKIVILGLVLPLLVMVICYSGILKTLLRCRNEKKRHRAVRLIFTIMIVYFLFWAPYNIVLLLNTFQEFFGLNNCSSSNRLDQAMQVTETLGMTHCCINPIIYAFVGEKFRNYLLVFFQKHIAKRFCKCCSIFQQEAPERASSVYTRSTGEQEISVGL
Sequence of Cannabinoid receptor 1 (P21554 whole entry): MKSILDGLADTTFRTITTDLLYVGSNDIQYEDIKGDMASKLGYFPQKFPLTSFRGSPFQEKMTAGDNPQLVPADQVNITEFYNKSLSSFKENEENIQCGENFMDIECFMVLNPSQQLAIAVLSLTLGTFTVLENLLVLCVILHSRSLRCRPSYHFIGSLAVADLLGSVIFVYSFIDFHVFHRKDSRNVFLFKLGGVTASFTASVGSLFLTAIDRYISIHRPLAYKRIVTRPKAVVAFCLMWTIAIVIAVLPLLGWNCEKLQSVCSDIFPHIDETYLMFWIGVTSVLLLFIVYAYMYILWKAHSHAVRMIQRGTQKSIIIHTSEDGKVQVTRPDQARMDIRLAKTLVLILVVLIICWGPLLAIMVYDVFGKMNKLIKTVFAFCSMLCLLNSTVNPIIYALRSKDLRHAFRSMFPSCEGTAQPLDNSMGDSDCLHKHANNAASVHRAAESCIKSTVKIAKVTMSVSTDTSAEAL

In the case of `CN(C)CC[C@@H](c1ccc(Cl)cc1)c1ccccn1` [DEXCHLORPHENIRAMINE], the half-maximal inhibitory concentration (IC50) entry in assay [1] was “Not Active”; at Cannabinoid receptor 1 it was “Not Active”; in assay [2], “Not Active”; in assay [3], “Not Active”; in assay [4] (read-out: IC50) it was 4970 nM; in assay [5], “Not Active”. For the same compound, the Ki result in assay [2] was “Not Active”; in assay [4] (read-out: Ki), 4920 nM.
As for `COc1ccc2cc3[n+](cc2c1OC)CCc1cc2c(cc1-3)OCO2.[Cl-]` [BERBERINE CHLORIDE], the IC50 result (in assay [1]; at Cannabinoid receptor 1; in assay [2]; in assay [3]; in assay [4] (mdck); in assay [5]) was “Not Active” in each case. Moreover, the Ki entry in assay [2] is reported as “Not Active”.
For `OC(CCCN1CCCCC1)(c1ccccc1)c1ccccc1` [DIPHENIDOL], the IC50 entry (in assay [1]; against Cannabinoid receptor 1; in assay [2]; in assay [3]; in assay [4] (mdck); in assay [5]) was “Not Active” in each case. The Ki entry in assay [2] was “Not Active”.
In the case of `CC(=O)O[C@H]1C(=O)[C@@]2(C)[C@H]([C@H](OC(=O)c3ccccc3)[C@]3(O)C[C@H](OC(=O)[C@H](O)[C@@H](NC(=O)c4ccccc4)c4ccccc4)C(C)=C1C3(C)C)[C@]1(OC(C)=O)CO[C@@H]1C[C@@H]2O` [PACLITAXEL], the IC50 result (in assay [1]; at Cannabinoid receptor 1; in assay [2]; in assay [3]; in assay [4] (mdck); in assay [5]) was “Not Active” each time. In addition, the Ki entry in assay [2] is “Not Active”.
For the compound `Cn1c(=O)c2c(ncn2CC(O)CO)n(C)c1=O` (stereo not given) [DYPHYLLINE], the IC50 entry (in assay [1]; on Cannabinoid receptor 1; in assay [2]; in assay [3]; in assay [4] (mdck); in assay [5]) was “Not Active” in each case. Besides, the inhibitory constant (Ki) result in assay [2] is given as “Not Active”.
Regarding `CN(C)[C@@H]1C(O)=C(C(N)=O)C(=O)[C@@]2(O)C(O)=C3C(=O)c4c(O)ccc(Cl)c4[C@@](C)(O)[C@H]3C[C@@H]12` [CHLORTETRACYCLINE], the IC50 entry (in assay [1]; against Cannabinoid receptor 1; in assay [2]; in assay [3]; in assay [4] (mdck); in assay [5]) was “Not Active” in each case. Further, in assay [2], the inhibition constant (Ki) entry is “Not Active”.
Consider `Cn1c(=O)c2[nH]cnc2n(C)c1=O.Cn1c(=O)c2[nH]cnc2n(C)c1=O.NCCN` [AMINOPHYLLINE], for which the IC50 result (in assay [1]; against Cannabinoid receptor 1; in assay [2]; in assay [3]; in assay [4] (mdck); in assay [5]) was “Not Active” each time. The Ki result in assay [2] is given as “Not Active”.
Regarding `C[C@H]1O[C@@H](n2cc(F)c(=O)[nH]c2=O)[C@H](O)[C@@H]1O` [DOXIFLURIDINE], the IC50 result (in assay [1]; against Cannabinoid receptor 1; in assay [2]; in assay [3]; in assay [4] (mdck); in assay [5]) was “Not Active” in each case. In addition, in assay [2], the Ki entry was “Not Active”.
On to `CC(C(=O)O)c1ccc2oc(-c3ccc(Cl)cc3)nc2c1` (stereo not given) [BENOXAPROFEN], for which the half-inhibitory concentration (IC50) result (in assay [1]; on Cannabinoid receptor 1; in assay [2]; in assay [3]; in assay [4] (mdck); in assay [5]) was “Not Active” each time. For the same compound, in assay [2], the inhibition constant Ki result is given as “Not Active”.
Take `Oc1c(Cl)cc(Cl)c(Cl)c1Cc1c(O)c(Cl)cc(Cl)c1Cl` [HEXACHLOROPHENE]: the half-maximal inhibitory concentration (IC50) result (in assay [1]; on Cannabinoid receptor 1; in assay [2]; in assay [3]; in assay [4] (mdck); in assay [5]) was “Not Active” each time. Besides, in assay [2], the inhibitory constant (Ki) result is “Not Active”.
For the compound `C#C[C@]1(OC(C)=O)CC[C@H]2[C@@H]3CCC4=C[C@@H](OC(C)=O)CC[C@@H]4[C@H]3CC[C@@]21C` [ETHYNODIOL DIACETATE], the IC50 result (in assay [1]; against Cannabinoid receptor 1; in assay [2]; in assay [3]; in assay [4] (mdck); in assay [5]) was “Not Active” each time. Further, in assay [2], the Ki result is “Not Active”.
Regarding `CCC(=O)O[C@]1(C(=O)CCl)[C@@H](C)C[C@H]2[C@@H]3CCC4=CC(=O)C=C[C@]4(C)[C@@]3(F)[C@@H](O)C[C@@]21C` [CLOBETASOL PROPIONATE], the concentration for half-maximal inhibition (IC50) result (in assay [1]; against Cannabinoid receptor 1; in assay [2]; in assay [3]; in assay [4] (mdck); in assay [5]) was “Not Active” each time. Also, the Ki entry in assay [2] was “Not Active”.
Regarding `C[C@@H](CO)NC(=O)[C@@H]1C=C2c3cccc4[nH]cc(c34)C[C@H]2N(C)C1` [ERGONOVINE], the IC50 result (in assay [1]; against Cannabinoid receptor 1; in assay [2]; in assay [3]; in assay [4] (mdck); in assay [5]) was “Not Active” each time. Further, in assay [2], the Ki entry was “Not Active”.
As for `Nc1ccc2c3c(cccc13)C(=O)NC2=O`, the 50% inhibitory concentration (IC50) result (in assay [1]; against Cannabinoid receptor 1; in assay [2]; in assay [3]; in assay [4] (mdck); in assay [5]) was “Not Active” throughout. Further, the inhibition constant (Ki) entry in assay [2] is “Not Active”.
For `CCN(CC)CCOCCC1=CCC2CC1C2(C)C` (stereo not given) [MYRTECAINE], the IC50 result (in assay [1]; on Cannabinoid receptor 1; in assay [2]; in assay [3]; in assay [4] (mdck); in assay [5]) was “Not Active” each time. Also, the Ki entry in assay [2] was “Not Active”.
In the case of `CC(C)=CCC/C(C)=C/CO` [GERANIOL], the IC50 entry (in assay [1]; against Cannabinoid receptor 1; in assay [2]; in assay [3]; in assay [4] (mdck); in assay [5]) was “Not Active” each time. For the same compound, in assay [2], the Ki result was “Not Active”.
For `CCCOc1ccc(C(=O)OCCN(CC)CC)cc1N` [PROPARACAINE], the IC50 result (in assay [1]; on Cannabinoid receptor 1; in assay [2]; in assay [3]; in assay [4] (mdck); in assay [5]) was “Not Active” each time. For the same compound, the inhibition constant Ki result in assay [2] is listed as “Not Active”.
`O=C(O)c1cccnc1Nc1cccc(C(F)(F)F)c1` [NIFLUMIC ACID]: the IC50 result (in assay [1]; on Cannabinoid receptor 1; in assay [2]; in assay [3]; in assay [4] (mdck); in assay [5]) was “Not Active” throughout. Further, the Ki entry in assay [2] is recorded as “Not Active”.
As to `CN1[C@@H]2CC[C@H]1C[C@@H](OC(=O)C(CO)c1ccccc1)C2` (stereo not given in full) [ATROPINE], the half-inhibitory concentration (IC50) entry (in assay [1]; on Cannabinoid receptor 1; in assay [2]; in assay [3]; in assay [4] (mdck); in assay [5]) was “Not Active” in each case. The Ki result in assay [2] is reported as “Not Active”.
As for `C#CC1(O)CC[C@H]2[C@@H]3CCC4=CC(=O)CC[C@@H]4[C@H]3CC[C@@]21CC` (stereo not given in full) [NORGESTREL], the IC50 result is “Not Active” in assay [1]; “Not Active” against Cannabinoid receptor 1; 2360 nM in assay [2] (read-out: IC50); “Not Active” in assay [3]; “Not Active” in assay [4] (mdck); “Not Active” in assay [5]. The inhibition constant (Ki) in assay [2] (read-out: Ki) is 1920 nM.
Regarding `CCCN(CCC)S(=O)(=O)c1ccc(C(=O)O)cc1` [PROBENECID], the 50% inhibitory concentration (IC50) entry (in assay [1]; against Cannabinoid receptor 1; in assay [2]; in assay [3]; in assay [4] (mdck); in assay [5]) was “Not Active” in each case. Moreover, the Ki result in assay [2] was “Not Active”.
As to `O=C1CN=C(c2ccccc2Cl)c2cc([N+](=O)[O-])ccc2N1` [CLONAZEPAM], the IC50 entry in assay [1] was “Not Active”; at Cannabinoid receptor 1, “Not Active”; in assay [2] (read-out: IC50) it was 4.93 nM; in assay [3] it was “Not Active”; in assay [4] (mdck) it was “Not Active”; in assay [5] it was “Not Active”. In assay [2] (read-out: Ki), the Ki was 4.02 nM.
